Measured values reported in patent publication US11617748B2, “Meclozine derivatives and diclazuril derivatives for use in the prevention and/or the treatment of disorders associated to the inflammation induced by P. acnes” (priority 2016, dated 2023).
Counter-ions that a name gives are not always drawn.

What was measured:
Type in all cases: cell-based, human
[1] = system: IL-8 production; test: P. acnes-induced IL-8 production in HaCaT keratinocytes (ELISA); conditions: for Dose-dependent inhibition of IL-8 production by keratinocytes stimulated by P. acnes pre-treated with meclozine analogues: 10 μM; for Dose-dependent inhibition of IL-8 production by keratinocytes stimulated by P. acnes pre-treated with meclozine analogues / decrease of IL-8 production at 6.25 μM: 24 h pre-treatment; for effect on IL-8 production at 6.25 μM, in words: 24 h pre-treatment (FIG. 8A); for decrease of IL-8 production at 6.25 μM: comparison with acne drugs (FIG. 8A)
Method: Bacterial strain and conditions of growth. P. acnes strain 6919 was obtained from the American Type Culture Collection (Manassas, Va.) and P. acnes strains RON and PIE were isolated from patient with joint infection. All strains were grown under anaerobic conditions in reinforced clostridial liquid and solid medium (RCM) (Difco Laboratories, Detroit, Mich.). P. acnes was transferred from the bacterial stock onto RCM agar plate and incubated for 5 days under anaerobic condition by using a GasPak™ EZ Anaerobic Container System (Becton Dickinson & Co, Sparks Md., USA). A single colony was transferred into 100 ml RCM and grown as described above. Bacterial suspension was then store frozen at −80° C. in presence of 10% glycerol final. This stock was called «start stock» and used for all the experiments. For routine culture, 100 ml of RCM was used and bacteria were harvested after 5 days at 37° C. by centrifugation at 7,000×g for 10 min at 4° C. Pellets were pooled and washed in about 30 ml of cold sterile PBS [1.5 mM KH2PO4, 2.7 mM Na2HPO4.7H2O, 0.15 M NaCl (pH 7.4)] and centrifuged again as described above. Finally, the bacterial pellet was suspended in sterile PBS (1:10 from volume culture).
(§1) Cell culture, pretreatment and stimulation. The immortalized human keratinocyte cell line HaCaT, fibroblast MRC5 were grown in Dulbecco's modified Eagle's medium-Glutamax-I (DMEM) with 1 mM sodium pyruvate. The immortalized human monocytic cell line ThP1 was grown in Roswell Park Memorial Institute 1640 Medium-Glutamax-I (RPMI). DMEM and RPMI were supplemented with 0.1% and 10% heat-inactivated fetal calf serum (Invitrogen), and an antibiotic/antimycotic solution (10 U/ml Pencillin, 10 μg/ml Streptomycin, 0.25 μg/ml Amphoterin) at 37° C. in humidified atmosphere containing 5% CO2 as described (Life Technologie). Primary human keratinocytes (NHDK) and fibroblast (HDF) were grown in the KGM-Gold and in FGM-2 Bullet Kit, respectively, as described by the manufacturer (Lonza). The immortalized cell lines were routinely tested to assess the absence of Mycoplasma infection. Cells, cultivated in 6- or 96-well polystyrene plates, were pretreated with appropriate molecule solution for 1 to 48 h at 37° C. in the dark at the appropriate concentration. Then, for stimulation, cells were incubated for 15 min to 24 h with the P. acnes suspension adjusted at the appropriate concentration at 37° C. in 5% CO2. For experiences using an in vitro model of psoriasis, the primary human keratinocytes (NHDK) were grown in culture medium for 24 hours. The medium was removed and replaced with culture medium containing meclozine, diclazuril and JAK inhibitor (used as positive control) at the concentrations of 0.39, 0.78, 1.56, 3.12, 6.25 and 12.5 μM and the pro-inflammatory mixture M5 (combination of IL-17A, OSM, TNF-α, IL-22, IL-1α at 10 ng/ml) was added to the cells followed by an incubation for 48 or 72 hours.
(§2) ELISA. Human IL-1β, IL-8, hBD-2 and TNF-α protein concentration were measured in the supernatants of stimulated cells using various ELISA Sets (all from Ready-Set-Go from eBioscience, except hBD-2 measurements: Human DEFB4A/BD-2 ELISA Kit from LSBio) according to the manufacturer's instructions. We used serial dilutions of recombinant human IL-1β, IL-8, hBD-2 and TNF-α for standard curve. The optical density was determined at 450 nm at a wavelength correction of 540 nm.
Both molecules, diclazuril and meclozine, were purchased separately from Sigma and tested independently on immortalized keratinocytes HaCaT cell for their capacity to inhibit the IL-8 production in a dose-dependent manner. HaCaT cells were pre-treated with diclazuril and meclozine, at the concentrations ranging from 0.39 to 50 μM, for 24 h and then stimulated with P. acnes suspension as described in Materials and Methods. The production of IL-8 was measured on culture supernatant by ELISA and the viability of cells was estimated by MTT assay (FIG. 1).

[2] = system: HaCaT cells; test: MTT cell viability assay on HaCaT keratinocytes; conditions: for Evaluation of cell viability after treatment with meclozine analogues on keratinocytes: 24 h, 10 μM
Method: as §1, with “The immortalized human monocytic cell line ThP1 was grown in Roswell Park Memorial Institute 1640 Medium-Glutamax-I (RPMI).” left out, “hours.” for “hours. The medium was removed and replaced with culture medium containing meclozine, diclazuril and JAK inhibitor (used as positive control) at the concentrations of 0.39, 0.78, 1.56, 3.12, 6.25 and 12.5 μM and the pro-inflammatory mixture M5 (combination of IL-17A, OSM, TNF-α, IL-22, IL-1α at 10 ng/ml) was added to the cells followed by an incubation for 48 or 72 hours.”
Cell viability assays. Viability of cells was estimated by using the MTT assay where cells were incubated with a 0.2% MTT solution in cell culture medium for 4 h at 37° C. The MTT solution was then discarded and DMSO added to solubilize the MTT-formazan cristals produced in living cells. After thorough mixing, the absorbance was measured at 540 nm.

[3] = system: IL-8 production; test: IL-8 production by M5-stimulated NHDK, in vitro psoriasis-like model (ELISA); conditions: NHDK + M5, 48 h, JAK inhibitor at 6.25 μM (positive control)
Method: (§3) Cell culture, pretreatment and stimulation.
as §2

[4] = system: hBD-2 production; test: hBD-2 production by M5-stimulated NHDK, in vitro psoriasis-like model (ELISA); conditions: NHDK + M5, 48 h, JAK inhibitor at 6.25 μM (positive control)
Method: as §3, §2

[5] = system: IL-8 production; test: P. acnes-induced IL-8 production in HaCaT keratinocytes (ELISA); conditions: HaCaT cells pre-treated 24 h, no P. acnes stimulation

**Q.** What does the source list for `Cc1cccc(C)c1NC(=O)CN1CCN(CCCC(c2ccc(F)cc2)c2ccc(F)cc2)CC1` [Lidoflazine]?
**A.** Dose-dependent inhibition of IL-8 production by keratinocytes stimulated by P. acnes pre-treated with meclozine analogues ([1]; HaCaT): 65%; Evaluation of cell viability after treatment with meclozine analogues on keratinocytes ([2]; human): 107%

**Q.** `CC[C@H]1OC(=O)[C@H](C)[C@@H](O[C@H]2C[C@@](C)(OC)[C@@H](O)[C@H](C)O2)[C@H](C)[C@@H](O[C@@H]2O[C@H](C)C[C@H](N(C)C)[C@H]2O)[C@](C)(O)C[C@@H](C)C(=O)[C@H](C)[C@@H](O)[C@]1(C)O` [erythromycine] was tested. Which “effect on IL-8 production at 6.25 μM, in words” value (“effect on IL-8 production” for short) ([1]; HaCaT) did it give?
**A.** very low none significative or no effect

**Q.** For Jak Inhibitor I, which “inhibition of M5-stimulated IL-8 production” value [3] is on record?
**A.** 49%

**Q.** And the “inhibition of stimulated hBD-2 production” value [4]?
**A.** 38%

**Q.** Which results are given for `COc1ccc(CN2CCN(C(c3ccc(F)cc3)c3ccc(F)cc3)CC2)c(OC)c1OC` [Lomerizine]?
**A.** Dose-dependent inhibition of IL-8 production by keratinocytes stimulated by P. acnes pre-treated with meclozine analogues ([1]; HaCaT): 58%; Evaluation of cell viability after treatment with meclozine analogues on keratinocytes ([2]; HaCaT, MTT): 95%

**Q.** How did the “effect on IL-8 production” value ([1]; HaCaT) turn out when `O=C(OOC(=O)c1ccccc1)c1ccccc1` [benzoyl peroxide] was run?
**A.** very low none significative or no effect

**Q.** And the “toxicity at 6.25 μM, in words (MTT)” value ([2]; HaCaT, 6.25 μM, 24 h pre-treatment (FIG. 8A))?
**A.** no toxicity

**Q.** What does the source list for `Cc1cc(-n2ncc(=O)[nH]c2=O)cc(Cl)c1Sc1ccc(Cl)cc1` [RCL PH000645-PH, PH000645-PH]?
**A.** IC50 ([1]; Homo sapiens, HaCaT cells pre-treated 24 h, then stimulated with P. acnes, read-out: IC50 of inhibition of IL-8 production): ~3000 nM; IL-8 production in pretreated cells without being stimulated [5]: no change

**Q.** For `CC1=C(/C=C/C(C)=C/C=C/C(C)=C\C(=O)O)C(C)(C)CCC1` [isotretinoin], which “decrease of IL-8 production at 6.25 μM” value ([1]; HaCaT) is on record?
**A.** 5%

**Q.** For `COc1ccc(-c2ccc3cc(C(=O)O)ccc3c2)cc1C12CC3CC(CC(C3)C1)C2` [adapalene], which “decrease of IL-8 production at 6.25 μM” value ([1]; HaCaT) is on record?
**A.** 20%

**Q.** What about the “IL-8 reduction at 12.5 μM” value ([1]; HaCaT, 12.5 μM, 24 h pre-treatment (FIG. 8B)) of the same compound?
**A.** 90%

**Q.** Which “Dose-dependent inhibition of IL-8 production by keratinocytes stimulated by P. acnes pre-treated with meclozine analogues” value ([1]; HaCaT) does the source give for `Fc1ccc(C(OCCN2CCN(CCCc3ccccc3)CC2)c2ccc(F)cc2)cc1` [GBR 12909 dihydrochloride] here?
**A.** 78%

**Q.** What about the “Evaluation of cell viability after treatment with meclozine analogues on keratinocytes” value ([2]; human) of the same compound?
**A.** 78%

**Q.** Which results are given for `CN1CCN(C(c2ccccc2)c2ccc(Cl)cc2)CC1` (centres unmarked) [Chlorcyclizine hydrochloride]?
**A.** Dose-dependent inhibition of IL-8 production by keratinocytes stimulated by P. acnes pre-treated with meclozine analogues ([1]; HaCaT): 54%; Evaluation of cell viability after treatment with meclozine analogues on keratinocytes ([2]; human): 81%

**Q.** With `CC1=C(/C=C/C(C)=C/C=C/C(C)=C/C(=O)O)C(C)(C)CCC1` [retinoic acid] as the compound, how does the “decrease of IL-8 production at 6.25 μM” value ([1]; HaCaT) read?
**A.** 5%

**Q.** With `CCC[C@@H]1C[C@@H](C(=O)N[C@@H]([C@H]2O[C@H](SC)[C@H](O)[C@@H](O)[C@H]2O)[C@H](C)Cl)N(C)C1` [clindamycine] as the compound, how does the “effect on IL-8 production” value ([1]; HaCaT) read?
**A.** very low none significative or no effect
